Results reported in patent US9108930B2, “N1- and N2-carbamoyl-1,2,3-triazole serine hydrolase inhibitors and methods” (The Scripps Research Institute, priority 2011, dated 2015).
pIC50: −log10 of the molar value. Several values for one entry are separate records, joined by “and”; a condition that tells them apart may be missing. Identical values can stand only once.

Legend:
APEH = target: T1, APEH (Mus musculus, UniProt Q8R146); assay: Gel-based competitive ABPP, mouse T-cell proteome in vitro; type: biochemical
T1 sequence (Q8R146 1-732): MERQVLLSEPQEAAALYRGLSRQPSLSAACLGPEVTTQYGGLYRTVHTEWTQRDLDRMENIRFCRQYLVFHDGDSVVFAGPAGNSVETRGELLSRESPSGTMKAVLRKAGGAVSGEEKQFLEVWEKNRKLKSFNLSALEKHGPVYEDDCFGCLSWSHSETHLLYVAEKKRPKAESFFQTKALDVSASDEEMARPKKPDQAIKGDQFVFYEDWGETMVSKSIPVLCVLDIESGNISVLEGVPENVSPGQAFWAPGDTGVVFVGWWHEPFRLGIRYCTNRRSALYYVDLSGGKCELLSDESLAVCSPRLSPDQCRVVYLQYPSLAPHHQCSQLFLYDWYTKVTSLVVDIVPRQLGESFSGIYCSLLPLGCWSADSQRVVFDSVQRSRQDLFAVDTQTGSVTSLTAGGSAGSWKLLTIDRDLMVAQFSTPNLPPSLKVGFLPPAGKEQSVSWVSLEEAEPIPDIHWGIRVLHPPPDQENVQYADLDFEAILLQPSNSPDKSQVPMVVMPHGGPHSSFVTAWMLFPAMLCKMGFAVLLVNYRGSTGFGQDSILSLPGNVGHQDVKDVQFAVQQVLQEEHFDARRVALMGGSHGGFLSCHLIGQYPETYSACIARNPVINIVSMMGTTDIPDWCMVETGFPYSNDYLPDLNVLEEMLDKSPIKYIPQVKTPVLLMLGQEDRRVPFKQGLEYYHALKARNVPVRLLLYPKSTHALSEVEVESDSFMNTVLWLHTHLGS
Description: The carbamoyl triazole regioisomers were separated by gel chromatography and used for subsequent experiments. […] The compounds were screened at concentrations of 10 and 100 nM in mouse T-cell proteomes (FIG. 3e and FIG. 12).
Gel-based competitive ABPP experiments were performed as described previously. For competitive ABPP with FP-rhodamine, proteomes (1 mg/mL in PBS) were treated with FP-rhodamine (2 μM final concentration) in a […] total reaction volume. After 30 minutes at 25° C., the reactions were quenched with 2×SDS-PAGE loading buffer.
Proteomes were incubated with inhibitors for 30 minutes at 37° C. (in vitro) or for 4 h at 37° C. (in situ) at the indicated concentrations (n=3) prior to FP-rhodamine labeling. After SDS-PAGE and in-gel visualization, the percentage enzymatic activity remaining was determined by measuring the integrated optical intensity of the bands using IMAGER® software. IC50 values were determined from a dose-response curve generated using PRISM® software (GraphPad).

DAGLB = target: T2, DAGLB (Mus musculus, UniProt Q91WC9); assay: ABPP-SILAC in Neuro2A cells; details: about 4 hours; 25 nM KT172, 50 nM KT109
T2 sequence (Q91WC9 1-669): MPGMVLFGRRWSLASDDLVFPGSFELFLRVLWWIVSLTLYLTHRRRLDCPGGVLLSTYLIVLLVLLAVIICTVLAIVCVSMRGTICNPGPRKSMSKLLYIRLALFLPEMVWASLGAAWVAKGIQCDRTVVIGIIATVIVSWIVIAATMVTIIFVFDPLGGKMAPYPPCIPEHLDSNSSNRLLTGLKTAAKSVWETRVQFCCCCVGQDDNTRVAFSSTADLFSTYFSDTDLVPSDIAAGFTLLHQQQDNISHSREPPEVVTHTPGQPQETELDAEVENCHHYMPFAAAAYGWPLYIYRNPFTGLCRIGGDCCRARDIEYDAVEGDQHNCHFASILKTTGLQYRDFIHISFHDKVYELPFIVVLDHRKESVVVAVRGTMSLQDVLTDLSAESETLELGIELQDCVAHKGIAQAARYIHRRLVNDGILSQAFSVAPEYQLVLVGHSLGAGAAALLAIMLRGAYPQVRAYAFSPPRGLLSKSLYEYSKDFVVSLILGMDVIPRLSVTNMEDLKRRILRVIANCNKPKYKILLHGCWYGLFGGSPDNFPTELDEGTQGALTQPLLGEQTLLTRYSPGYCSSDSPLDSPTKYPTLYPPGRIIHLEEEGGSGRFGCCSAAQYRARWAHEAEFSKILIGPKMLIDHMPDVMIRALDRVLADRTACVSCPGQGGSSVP

peritoneal macrophages = assay: LPS-stimulated TNF-alpha release (ELISA), macrophages from treated C57 BL/6 mice; type: in vivo, mouse; details: 5 mg/kg, 4 hours, i.p.; LPS 5 μg/mL, 90 min
Description: The effects of DAGLB-inhibition on the proinflammatory response in Pla2g4a^+/+ versus Pla2g4a^−/− mice also was evaluated. Thioglycolate-elicited macrophages from C57 BL/6 mice treated with KT109 or KT195 (5 mg/kg, 4 hours, i.p.) were harvested, plated, and stimulated with lipopolysaccharide (LPS).

| SMILES | inhibition of APEH (APEH; 10 nM) | pIC50 (APEH; IC50 for APEH, in vitro, 30 minutes at 37° C., mouse) | DAGLB activity blocked (DAGLB) | secreted TNF-alpha levels (peritoneal macrophages) |
| --- | --- | --- | --- | --- |
| CC(C)CC(O)(CC(C)C)c1cnn(C(=O)N2CCCC2)n1 [AA74-1] | completely inhibited APEH | 8.30 and 8.52 | – | – |
| O=C(N1CCCCC1Cc1ccccc1)n1cc(-c2ccc(-c3ccccc3)cc2)nn1 (stereo not shown) [KT109] | – | – | approximately 90% | modest but significant reduction in secreted TNF-alpha levels |
